From PubChem BioAssay AID743162 (Broad Institute, 2013)
Active and inactive are the calls of the source. No rule for the calls is given here.

Tested on: Mycobacterium tuberculosis replicating, CFU count, imaging
Assay: growth inhibition of replicating M. tuberculosis, dose response, CFU by imaging, dry powder, 7108-01 (AID 743162)
Conditions: stronger effect = lower value

## COc1ccc(CNC(=O)Nc2ncc([N+](=O)[O-])s2)cc1
CFU at 10 uM, at 10 µM
  CFU count: 1.24e+09
At 64 µM
  CFU count: 220000

## COC(=O)C(C)Oc1ccc2cc(-c3ccccc3)c(=O)oc2c1 (stereo not drawn)
CFU at 10 uM, at 10 µM
  CFU count: 2.01e+09
At 64 µM
  CFU count: 1e+09 (inactive)

## Cn1c(NC(=O)c2ccccc2)nc2ccccc21
CFU at 10 uM, at 10 µM
  CFU count: 1.98e+09
At 64 µM
  CFU count: 0

## CCOC(=O)c1cc(COc2c(Cl)cccc2Cl)on1
CFU at 10 uM, at 10 µM
  CFU count: 1.85e+09
At 64 µM
  CFU count: 1.7e+09 (inactive)

## CCOc1ccc(OC(=O)c2ccc3c(=O)n4c(nc3c2)CCC4)cc1
CFU at 10 uM, at 10 µM
  CFU count: 1.36e+09
At 64 µM
  CFU count: 1e+09 (inactive)

## COc1ccc(CCNc2cc(-c3ccccc3)nc3ncnn23)cc1
CFU at 10 uM, at 10 µM
  CFU count: 1.18e+09
At 64 µM
  CFU count: 4.3e+08 (inactive)

## CCC(C)n1nnc2c(=O)oc3ccccc3c21 (stereo not drawn)
CFU at 10 uM, at 10 µM
  CFU count: 8.38e+08
At 64 µM
  CFU count: 6.7e+08 (inactive)

## c1ccc(-c2n[nH]c(-c3ccccn3)n2)nc1
CFU at 10 uM, at 10 µM
  CFU count: 1.06e+09
At 64 µM
  CFU count: 1.3e+09 (inactive)

## CSc1nsc(SCc2ccc(C(=O)Nc3cccc(C)c3)cc2)n1
CFU at 10 uM, at 10 µM
  CFU count: -1.9e+09
At 64 µM
  CFU count: 1.31e+06
